Assay results reported in US5571832A (priority 1994, dated 1996).

Columns and labels:
NMDA receptor = settings: Carter et al 1988; cited from earlier work
sigma receptor [1] = target: sigma receptor (Cavia porcellus, UniProt Q60492); assay: biochemical
sigma receptor [2] = settings: cited from earlier work

sigma receptor (Cavia porcellus, UniProt Q60492), sequence (Q60492 whole entry): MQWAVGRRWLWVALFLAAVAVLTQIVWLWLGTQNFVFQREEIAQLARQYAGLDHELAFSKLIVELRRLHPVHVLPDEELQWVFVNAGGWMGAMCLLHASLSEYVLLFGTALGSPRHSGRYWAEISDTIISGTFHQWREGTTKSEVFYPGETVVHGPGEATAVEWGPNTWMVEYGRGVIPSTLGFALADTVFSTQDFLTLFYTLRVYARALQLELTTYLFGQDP

Compound	Ki (sigma receptor [1]) [nM]	NMDA receptor antagonism (NMDA receptor)	further results
CC(C(O)c1ccc(O)cc1)N1CCC(Cc2ccccc2)CC1 (stereo not drawn) [ifenprodil]	–	non-competitive NMDA receptor antagonists	–
CN(CCc1ccc(Cl)c(Cl)c1)[C@@H]1CCCC[C@@H]1N1CCCC1 (single isomer, unassigned) [cis-N-[3,4-dichlorophenylethyl]-N-methyl-2-(1-pyrrolidinyl)cyclohexylamine]	–	–	sigma ligand potency and selectivity (sigma receptor [2]): extremely potent and selective ligands for the sigma receptor
1-(4-chlorophenyl)-2-[1-(4-fluorophenyl)piperidinyl]ethanol	–	non-competitive NMDA receptor antagonists	–

More lines, main results first:

Ki (sigma receptor [1]) [nM]	Compound	NMDA receptor antagonism (NMDA receptor)	further results
3.69 ± 0.85	CN(CCc1ccc(Cl)c(Cl)c1)CC1CCCCN1C (stereo not drawn) [Compound 2, 2-[N-[2-(3,4-Dichlorophenyl)ethyl]-N-(methyl)aminomethyl]-1-(methyl)piperidine]	–	–
1.48 ± 0.37	CCN1CCCC1CN(C)CCc1ccc(Cl)c(Cl)c1 (stereo not drawn) [Compound 4, 2-[N-(3,4-Dichlorophenylethyl)-N-(methyl)aminomethyl]-1-(ethyl)pyrrolidine]	–	–
16 ± 3.62	CCN1CCCC1CNCCc1ccc(Cl)c(Cl)c1 (stereo not drawn) [Compound 3, 2-[N-(3,4-dichlorophenylethyl)aminomethyl]-1-(ethyl)pyrrolidine]	–	–
